Assay results: patent US20060100140A1, “Combination of a) n-{5-[4-(4-methyl-piperazino-methyl)-benzoylamido]2-methylphenyl}-4- (3-pyridyl)-2-pyrimidine-amine and b) a histone deacetylase inhibitor for the treatment of leukemia” (priority 2002, published 2006)

Legend:
K562 cells = experiment: Apoptosis by morphological analysis of Wright Giemsa-stained cytospin preparations; assay type: cell-based, human; conditions: K562; for effect of caspase inhibitor on Compound I/SAHA-induced apoptosis: Compound I + SAHA with 25 μM inhibitor
Procedure: (§1) Experimental Format: Logarithmically growing cells are placed in sterile plastic T-flasks (Corning, Corning, N.Y.) to which are added the designated drugs and the flasks replaced in the incubator for intervals. At the end of the incubation period, cells are transferred to sterile centrifuge tubes, pelleted by centrifugation at 400×g for 10 min at room temperature, and prepared for analysis as described below.
(§2) Assessment of Apoptosis: After drug exposures, cytocentrifuge preparations are stained with Wright-Giemsa and viewed by light microscopy to evaluate the extent of apoptosis (i.e., cell shrinkage, nuclear condensation, formation of apoptotic bodies, etc.) as described previously (Yu et al., Nat. Rev. Cancer 1:294-202). For these studies, the percentage of apoptotic cells is determined by evaluating ≧500 cells/condition in triplicate. To confirm the results of morphological analysis, Annexin V/PI staining is used. Annexin V/PI (BD PharMingen, San Diego, Calif.) analysis of cell death is carried out as per the manufacturer's instructions. In studies involving TNF and TNF soluble receptor, both compound are combined and maintained at room temperature 20 min prior to use. For these experiments 1-2×10^5 cells per condition are harvested. Analysis is carried out using a Becton-Dickinson FACScan cytofluorometer (Mansfield, Mass.). To further confirm the morphology results, TUNEL staining is used. For TUNEL staining, cytocentrifuge preparations are obtained and fixed with 4% formaldehyde. The slides are treated with acetic acid/ethanol (1:2), stained with terminal transferase reaction mixture containing 1× terminal transferase reaction buffer (0.25 units/μl terminal transferase, 2.5 mM CoCl2, and 2 pmol fluorescein-12-dUTM; Boehringer Mannheim, Indianapolis, Ind.), and visualized using fluorescence microscopy.

LAMA 84 cells = experiment: Apoptosis by cytospin slides; assay type: cell-based, human; conditions: Table 6; LAMA 84; 24 hr; sodium butyrate (SB; 1 or 2 mM); Compound I concentration not given
Procedure: as §1, §2

COC(=O)CC(NC(=O)OC(C)(C)C)C(=O)CF (stereo not shown) [BOC-fmk]
effect of caspase inhibitor on Compound I/SAHA-induced apoptosis (K562 cells): markedly inhibited apoptosis

CCCC(=O)[O-].[Na+] [SB, sodium butyrate]
Compound I + SB % of apoptotic cells (K562 cells; Table 6, 24 hr, sodium butyrate (SB; 1 or 2 mM), Compound I concentration not given): 5.1 ± 2.2%
Compound I + SB % of apoptotic cells (LAMA 84 cells): 6.4 ± 2.8%

IETD-fmk
effect of caspase inhibitor on Compound I/SAHA-induced apoptosis (K562 cells): minimally effective
